Data: US12577267B2, “Pyrimidine compounds for use as MAP4K1 inhibitors” (GLENMARK SPECIALITY S.A., priority 2021, dated 2026)
Structures can show the parent of a compound that is named as a salt. Where two headings read alike, the source gives them in different places.

Biological target: MAP4K-1 enzyme (Homo sapiens, UniProt Q92918)
Assay: FRET one step binding assay (tracer displacement)
Description: This is a one step binding assay based on the binding and displacement of the labeled tracer, where compound addition is followed by addition of the anti-GST tagged europium (Eu) as the donor and Alexa Fluor-labeled tracer as the acceptor.
Test compounds were dissolved in dimethylsulfoxide (DMSO) to prepare 10.0 mM stock solutions and diluted to the desired concentration. The final concentration of DMSO in the reaction was 3% (v/v). The assay mixture was prepared by mixing 2 nM of the Eu-Anti-GST Antibody and 5 nM MAP4K-1 enzyme in the Kinase buffer containing 50 mM HEPES (pH 7.5), 10 mM MgCl2, 1 mM EGTA, 0.01% Brij-35 with or without the desired concentration of the compound. The reaction was incubated on ice for 15 min. […] After shaking for 5 min the reaction was further incubated for 1 hour at room temperature and this was kept at 4° C. and read on ARTEMIS reader as per the kit instructions (Thermo). […] The activity was calculated as percent of control reaction. IC50 values were calculated from dose response curve by nonlinear regression analysis using GraphPad Prism software.

MAP4K-1 enzyme, sequence (Q92918 whole entry): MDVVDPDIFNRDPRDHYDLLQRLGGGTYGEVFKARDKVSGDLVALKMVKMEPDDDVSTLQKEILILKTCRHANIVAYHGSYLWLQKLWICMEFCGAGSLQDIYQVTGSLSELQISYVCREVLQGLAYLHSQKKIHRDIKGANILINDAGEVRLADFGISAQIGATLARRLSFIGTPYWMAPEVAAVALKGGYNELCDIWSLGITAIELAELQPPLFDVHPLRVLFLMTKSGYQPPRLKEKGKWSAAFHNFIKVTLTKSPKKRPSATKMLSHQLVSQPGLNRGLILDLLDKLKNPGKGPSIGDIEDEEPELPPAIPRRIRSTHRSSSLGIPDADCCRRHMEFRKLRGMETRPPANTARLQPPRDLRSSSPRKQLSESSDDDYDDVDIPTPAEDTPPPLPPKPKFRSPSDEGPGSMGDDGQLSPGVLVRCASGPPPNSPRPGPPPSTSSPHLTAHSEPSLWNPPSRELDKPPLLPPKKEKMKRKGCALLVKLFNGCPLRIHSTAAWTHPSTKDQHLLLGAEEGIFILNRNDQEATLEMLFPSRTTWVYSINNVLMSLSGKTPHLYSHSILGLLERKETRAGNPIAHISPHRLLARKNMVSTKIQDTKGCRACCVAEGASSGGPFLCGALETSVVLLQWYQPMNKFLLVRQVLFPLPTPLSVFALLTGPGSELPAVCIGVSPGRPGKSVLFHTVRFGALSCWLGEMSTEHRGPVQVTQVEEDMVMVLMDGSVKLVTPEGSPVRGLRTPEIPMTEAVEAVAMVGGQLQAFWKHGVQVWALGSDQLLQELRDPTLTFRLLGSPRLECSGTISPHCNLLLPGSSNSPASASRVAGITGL

Row | Compound | inhibition at 1 µM (1 μM compound) | inhibition at 10 µM (10 μM compound) | IC50 (read-out: IC50) | IC50 (IC50 (nM)) | IC50 | % Inhibition at 1 μM (1 μM compound, 1 µM) | % Inhibition at 10 μM (10 μM compound, 10 µM)
1 | COc1cc2c(cc1Nc1ncc(Cl)c(Nc3ccc(OC(F)F)cc3P(C)(C)=O)n1)CN(C)CC2 [Example 45, (2-((5-Chloro-2-((6-methoxy-2-methyl-1,2,3,4-tetrahydroisoquinolin-7-yl)amino)pyrimidin-4-yl)amino)-5-(difluoromethoxy)phenyl)dimethylphosphineoxide] | 74.8% | 79% | < 50 nM |  |  |  | 
2 | Cn1nc(Nc2ncc(Cl)c(Nc3ccc(OS(=O)(=O)F)cc3P(C)(C)=O)n2)c2c1CNC2 [Example 41, 4-((5-Chloro-2-((1-methyl-1,4,5,6-tetrahydropyrrolo[3,4-c]pyrazol-3-yl)amino)pyrimidin-4-yl)amino)-3-(dimethylphosphoryl)phenyl sulfofluoridate hydrochloride] | 90.4% | 85% |  | < 50 nM |  |  | 
3 | COc1cc2c(cc1Nc1ncc(Cl)c(Nc3ccc(C(F)F)cc3P(C)(C)=O)n1)CN(C)CC2 [Example 54, (2-((5-Chloro-2-((6-methoxy-2-methyl-1,2,3,4-tetrahydroisoquinolin-7-yl)amino)pyrimidin-4-yl)amino)-5-(difluoromethyl)phenyl)dimethylphosphine oxide] | 93.4% | 93.7% | < 50 nM |  |  |  | 
4 | COc1cc2c(cc1Nc1ncc(Cl)c(Nc3ccc(C(=O)N(C)CCF)cc3P(C)(C)=O)n1)CN(C)CC2 [Example 52, 4-((5-Chloro-2-((6-methoxy-2-methyl-1,2,3,4-tetrahydroisoquinolin-7-yl)amino)pyrimidin-4-yl)amino)-3-(dimethylphosphoryl)-N-(2-fluoroethyl)-N-methyl benzamide] | 88.2% | 85.5% | < 50 nM |  |  |  | 
5 | COc1cc2c(cc1Nc1ncc(Cl)c(Nc3ccc(OC4COC4)cc3P(C)(C)=O)n1)CN(C)CC2 [Example 51, (2-((5-Chloro-2-((6-methoxy-2-methyl-1,2,3,4-tetrahydroisoquinolin-7-yl)amino)pyrimidin-4-yl)amino)-5-(oxetan-3-yloxy)phenyl)dimethyl phosphine oxide] | 93.1% | 94.3% | < 50 nM |  |  |  | 
6 | COc1cc2c(cc1Nc1ncc(Cl)c(Nc3ccc(OC(F)(F)F)cc3P(C)(C)=O)n1)CN(C)CC2 [Example 47] | 91.4% | 88% | < 50 nM |  |  |  | 
7 | COc1cc2c(cc1Nc1ncc(Cl)c(Nc3ccc(C(F)(F)F)cc3P(C)(C)=O)n1)CN(C)CC2 [Example 55, (2-((5-Chloro-2-((6-methoxy-2-methyl-1,2,3,4-tetrahydroisoquinolin-7-yl)amino)pyrimidin-4-yl)amino)-5-(trifluoromethyl)phenyl) dimethylphosphine oxide] | 94.6% | 95.3% | < 50 nM |  |  |  | 
8 | COc1cc2c(cc1Nc1ncc(Cl)c(Nc3ccc(N(C)S(=O)(=O)F)cc3P(C)(C)=O)n1)C(C)N(C)CC2 (racemic) [Example 44, ±(4-((5-Chloro-2-((6-methoxy-1,2-dimethyl-1,2,3,4-tetrahydroisoquinolin-7-yl)amino)pyrimidin-4-yl)amino)-3-dimethylphosphoryl)phenyl) (methyl)sulfamoylfluoride dihydrochloride] | 81.6% | 79.6% |  | < 50 nM |  |  | 
9 | COc1cc2c(cc1Nc1ncc(Cl)c(Nc3ccc(OS(=O)(=O)F)cc3P(C)(C)=O)n1)CN(CC(F)F)CC2 [Example 8, 4-((5-Chloro-2-((2-(2,2-difluoroethyl)-6-methoxy-1,2,3,4-tetrahydroisoquinolin-7-yl)amino)pyrimidin-4-yl)amino)-3-(dimethylphosphoryl)phenyl sulfurofluoridate dihydrochloride] | 63.7% | 80% |  | < 50 nM |  |  | 
10 | COc1cc2c(cc1Nc1ncc(Cl)c(Nc3ncc(OS(=O)(=O)F)cc3P(C)(C)=O)n1)C(C)N(C)CC2 (single isomer, unassigned; isomer 1) [Example 23, 6-((5-Chloro-2-((6-methoxy-1,2-dimethyl-1,2,3,4-tetrahydroisoquinolin-7-yl)amino)pyrimidin-4-yl)amino)-5-(dimethylphosphory)pyridin-3-yl sulfofluoridate dihyrochloride (Isomer 1)] | 86.1% | 89.6% |  | 50 to 100 nM |  |  | 
11 | COCCOc1ccc(Nc2nc(Nc3cc4c(cc3OC)CCN(C)C4)ncc2Cl)c(P(C)(C)=O)c1 [Example 50, (2-((5-Chloro-2-((6-methoxy-2-methyl-1,2,3,4-tetrahydroisoquinolin-7-yl)amino)pyrimidin-4-yl)amino)-5-(2-methoxyethoxy)phenyl)dimethyl phosphine oxide] | 92.7% | 94.8% | < 50 nM |  |  |  | 
12 | COc1cc2c(cc1Nc1ncc(Cl)c(Nc3c(C)cc(OS(=O)(=O)F)cc3P(C)(C)=O)n1)CN(C)CC2 [Example 15, 4-((5-Chloro-2-((6-methoxy-2-methyl-1,2,3,4-tetrahydroisoquinolin-7-yl)amino)pyrimidin-4-yl)amino)-3-(dimethylphosphoryl)-5-methylphenyl sulfurofluoridate dihydrochloride] | 78.6% | 91.8% |  | > 500 nM |  |  | 
13 | [2H]C([2H])([2H])Oc1cc2c(cc1Nc1ncc(Cl)c(Nc3ccc(OS(=O)(=O)F)cc3P(C)(C)=O)n1)CNCC2 [Example 39, 4-((5-Chloro-2-((6-methoxy-d3-1,2,3,4-tetrahydroisoquinolin-7-yl)amino)pyrimidin-4-yl)amino)-3-(dimethylphosphoryl)phenyl sulfofluoridate dihydrochloride] | 75.1% | 87% |  | < 50 nM |  |  | 
14 | COc1cc2c(cc1Nc1ncc(Cl)c(Nc3ccc(OS(=O)(=O)F)cc3P(C)(C)=O)n1)CN(C)C(C)C2 (single isomer, unassigned; isomer 2) [Example 34, 4-((5-Chloro-2-((6-methoxy-2,3-dimethyl-1,2,3,4-tetrahydroisoquinolin-7-yl)amino)pyrimidin-4-yl)amino)-3-(dimethylphosphoryl)phenyl sulfofluoridate dihydrochloride (Isomer 2)] |  |  |  |  | < 50 nM | 84.26% | 86.64%
15 | COc1cc2c(cc1Nc1ncc(Cl)c(Nc3ccc(OS(=O)(=O)F)cc3P(C)(C)=O)n1)CN(C1COC1)CC2 [Example 16, 4-((5-Chloro-2-((6-methoxy-2-(oxetan-3-yl)-1,2,3,4-tetrahydroisoquinolin-7-yl)amino)pyrimidin-4-yl)amino)-3-(dimethylphosphoryl)phenyl sulfurofluoridate dihydrochloride] | 87.3% | 86% |  | < 50 nM |  |  | 
16 | [2H]C([2H])([2H])Oc1cc2c(cc1Nc1ncc(Cl)c(Nc3ccc(OS(=O)(=O)F)cc3P(C)(C)=O)n1)C([2H])([2H])NCC2 [Example 40, 4-((5-Chloro-2-((6-methoxy-d3-1,2,3,4-tetrahydroisoquinolin-7-yl-1,1-d2)amino)pyrimidin-4-yl)amino)-3-(dimethylphosphoryl)phenyl sulfofluoridate dihydrochloride] | 83.3% | 84% |  | < 50 nM |  |  | 
17 | COc1cc2c(cc1Nc1ncc(Cl)c(Nc3ccc(S(C)(=N)=O)cc3P(C)(C)=O)n1)CN(C)CC2 (stereo not drawn) [Example 58, (2-((5-Chloro-2-((6-methoxy-2-methyl-1,2,3,4-tetrahydroisoquinolin-7-yl)amino)pyrimidin-4-yl)amino)-5-(S-methylsulfonimidoyl)phenyl)dimethylphosphine oxide] | 96.6% | 96.4% | < 50 nM |  |  |  | 
18 | CCN1CCc2cc(OC)c(Nc3ncc(Cl)c(Nc4ccc(OS(=O)(=O)F)cc4P(C)(C)=O)n3)cc2C1 [Example 9, 4-((5-Chloro-2-((2-ethyl-6-methoxy-1,2,3,4-tetrahydroisoquinolin-7-yl)amino)pyrimidin-4-yl)amino)-3-(dimethylphosphoryl) phenyl sulfofluoridate dihydrochloride] | 78.5% | 78.8% |  | < 50 nM |  |  | 
19 | COc1cc2c(cc1Nc1ncc(Cl)c(Nc3ccc(O[C@H]4CCOC4)cc3P(C)(C)=O)n1)CN(C)CC2 [Example 48, (S)-(2-((5-Chloro-2-((6-methoxy-2-methyl-1,2,3,4-tetrahydroisoquinolin-7-yl)amino)pyrimidin-4-yl)amino)-5-((tetrahydrofuran-3-yl)oxy)phenyl)dimethylphosphineoxide] | 84.2% | 81.4% | < 50 nM |  |  |  | 
20 | COc1cc2c(cc1Nc1ncc(Cl)c(Nc3cc(OS(=O)(=O)F)ccc3P(C)(C)=O)n1)C(C)N(C)CC2 (single isomer, unassigned; isomer 1) [Example 31, 3-((5-Chloro-2-((6-methoxy-1,2-dimethyl-1,2,3,4-tetrahydroisoquinolin-7-yl)amino)pyrimidin-4-yl)amino)-4-(dimethylphosphoryl)phenyl sulfofluoridate dihydrochloride (Isomer 1)] | 84.4% | 89% |  | < 50 nM |  |  | 
21 | COc1cc2c(cc1Nc1ncc(C(N)=O)c(Nc3ccc(OS(=O)(=O)F)cc3P(C)(C)=O)n1)CN(C)CC2 [Example 3, 4-((5-Carbamoyl-2-((6-methoxy-2-methyl-1,2,3,4-tetrahydroisoquinolin-7-yl)amino)pyrimidin-4-yl)amino)-3-(dimethylphosphoryl)phenyl sulfurofluoridate dihydrochloride] | 85.6% | 91.2% |  | < 50 nM |  |  | 
